# In ChEMBL document CHEMBL5344472, “Discovery of Alternative Binding Poses through Fragment-Based Identification of DHODH Inhibitors” (ACS Med Chem Lett, 2024):
# Assays:
# [1] = Metabolic stability in human liver microsome assessed as half life; format: ADME; settings: liver microsomes
# MOLM-13 = test: Antiproliferative activity in human MOLM-13 AML cells assessed as reduction in cell viability incubated for 72 hrs by CellTiter-Glo assay; settings: MOLM-13, 72 h
# [2] = Metabolic stability in mouse liver microsome assessed as half life; format: ADME; settings: liver microsomes
# [3] = Microsomal stability in mouse assessed as half-life; format: ADME, Microsome; settings: microsomes
# [4] = Microsomal stability in human assessed as half-life; format: ADME, Microsome; settings: microsomes
# P-gp (ABCB1) = P-gp (ABCB1) (Homo sapiens, UniProt P08183); test: Substrate activity at P-gp (unknown origin) assessed as efflux ratio; format: ADME; settings: not told
# P-gp (ABCB1), sequence (P08183 whole entry): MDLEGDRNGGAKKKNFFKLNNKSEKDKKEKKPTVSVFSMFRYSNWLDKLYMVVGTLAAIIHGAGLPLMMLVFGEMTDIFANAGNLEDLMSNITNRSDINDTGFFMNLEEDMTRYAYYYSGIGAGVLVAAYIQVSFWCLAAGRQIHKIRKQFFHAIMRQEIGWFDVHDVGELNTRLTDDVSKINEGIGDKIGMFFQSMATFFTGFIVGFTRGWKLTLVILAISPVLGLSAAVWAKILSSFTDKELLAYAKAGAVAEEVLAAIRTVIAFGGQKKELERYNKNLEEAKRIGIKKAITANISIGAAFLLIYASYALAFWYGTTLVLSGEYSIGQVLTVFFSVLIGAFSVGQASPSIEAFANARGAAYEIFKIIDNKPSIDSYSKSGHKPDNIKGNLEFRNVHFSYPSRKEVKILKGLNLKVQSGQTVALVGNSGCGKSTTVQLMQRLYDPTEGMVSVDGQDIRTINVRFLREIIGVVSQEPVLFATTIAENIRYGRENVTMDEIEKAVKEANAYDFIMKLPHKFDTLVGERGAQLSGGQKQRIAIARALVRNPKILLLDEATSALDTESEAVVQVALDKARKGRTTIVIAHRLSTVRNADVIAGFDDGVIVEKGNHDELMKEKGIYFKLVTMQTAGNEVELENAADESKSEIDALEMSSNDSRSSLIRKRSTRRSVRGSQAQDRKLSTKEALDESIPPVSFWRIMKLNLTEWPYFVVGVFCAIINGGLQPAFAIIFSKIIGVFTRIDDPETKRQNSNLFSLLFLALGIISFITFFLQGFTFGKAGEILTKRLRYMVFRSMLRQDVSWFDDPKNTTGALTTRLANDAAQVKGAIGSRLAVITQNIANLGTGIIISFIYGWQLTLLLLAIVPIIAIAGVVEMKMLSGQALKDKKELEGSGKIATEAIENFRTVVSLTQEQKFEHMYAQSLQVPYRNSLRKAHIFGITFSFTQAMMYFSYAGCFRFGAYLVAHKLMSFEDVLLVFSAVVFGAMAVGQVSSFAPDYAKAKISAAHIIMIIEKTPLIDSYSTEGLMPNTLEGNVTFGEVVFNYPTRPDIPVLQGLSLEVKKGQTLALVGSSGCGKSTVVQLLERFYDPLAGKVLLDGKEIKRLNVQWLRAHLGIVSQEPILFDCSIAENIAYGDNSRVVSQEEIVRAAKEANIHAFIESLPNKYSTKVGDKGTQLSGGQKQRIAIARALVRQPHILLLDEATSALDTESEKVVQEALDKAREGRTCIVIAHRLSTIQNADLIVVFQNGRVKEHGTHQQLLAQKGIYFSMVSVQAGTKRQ
# [5] = Permeability of compound in MDCK cells; format: ADME, cell-based, Canis lupus familiaris; settings: dog, read-out: permeability
# [6] = Intrinsic clearance in human liver microsomes; format: ADME, Microsome; settings: read-out: CLH
# [7] = Clearance in iv dosed mouse assessed as hepatic blood flow; format: ADME, organism-based; settings: in vivo
# [8] = Half-life in C57 mouse at 10 mg/kg, po or 2 mg/kg, iv; format: ADME, organism-based; settings: in vivo
# [9] = Plasma protein binding in human assessed as free fraction; format: ADME, cell-free; settings: read-out: PPB
# [10] = Plasma protein binding in mouse assessed as free fraction; format: ADME, cell-free; settings: read-out: PPB
# [11] = Oral bioavailability in C57 mouse at 10 mg/kg; format: ADME, organism-based; settings: in vivo
# [12] = Volume of distribution at steady state in C57 mouse at 10 mg/kg, po or 2 mg/kg, iv; format: ADME, organism-based; settings: in vivo
# [13] = molecular target: Dihydroorotate dehydrogenase (quinone), mitochondrial (Homo sapiens, UniProt Q02127); test: Inhibition of human DHODH in MOLM-13 AML cells; format: cell-based
# Dihydroorotate dehydrogenase (quinone), mitochondrial, sequence (Q02127 whole entry): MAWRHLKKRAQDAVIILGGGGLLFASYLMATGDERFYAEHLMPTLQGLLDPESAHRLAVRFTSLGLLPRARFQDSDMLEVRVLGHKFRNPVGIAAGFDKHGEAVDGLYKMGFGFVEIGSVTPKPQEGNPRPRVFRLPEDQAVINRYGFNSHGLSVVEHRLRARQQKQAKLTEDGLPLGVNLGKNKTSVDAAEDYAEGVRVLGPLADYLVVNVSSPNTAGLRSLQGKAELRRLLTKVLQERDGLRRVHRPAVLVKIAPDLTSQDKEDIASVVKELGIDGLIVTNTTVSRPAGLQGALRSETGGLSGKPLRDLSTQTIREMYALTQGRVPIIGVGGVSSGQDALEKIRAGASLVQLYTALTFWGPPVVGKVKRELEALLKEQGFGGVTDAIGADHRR
Structure (SMILES),half-life [1] [min],IC50 (MOLM-13) [nM],half-life [2] [min],also measured
CCN(C(=O)Nc1cc(O[C@@H](C)C(F)(F)F)c(C(=O)Nc2c(F)cccc2Cl)cc1F)C1CC1,50,1,20,
CCCC(=O)Nc1cc(O[C@@H](C)C(F)(F)F)c(C(=O)Nc2c(F)cccc2Cl)cc1F,,46,,half-life [3]: < 4 min; half-life [4]: 31 min
CC/C(=C\CO)C(=O)Nc1cc(O[C@@H](C)C(F)(F)F)c(C(=O)Nc2c(F)cccc2Cl)cc1F,,64,,
CCN(CC)C(=O)N(C)c1cc(O[C@@H](C)C(F)(F)F)c(C(=O)Nc2c(F)cccc2Cl)cc1F,< 4,25,< 4,
COCC1CCCN1C(=O)Nc1cc(O[C@@H](C)C(F)(F)F)c(C(=O)Nc2c(F)cccc2Cl)cc1F (stereo partly specified),,11,,
C[C@H](Oc1cc(NC(=O)C2CC2)c(F)cc1C(=O)Nc1c(F)cccc1Cl)C(F)(F)F,,55,,
C[C@H](Oc1cc(NC(=O)N2CCC2CO)c(F)cc1C(=O)Nc1c(F)cccc1Cl)C(F)(F)F (mixture of isomers),28,1.6,15,
C[C@H](Oc1cc(NC(=O)N2CC(CO)C2)c(F)cc1C(=O)Nc1c(F)cccc1Cl)C(F)(F)F,142,430,178,
CCC(CCO)C(=O)Nc1cc(O[C@@H](C)C(F)(F)F)c(C(=O)Nc2c(F)cccc2Cl)cc1F (stereo partly specified),,206,,
CCn1c(CO)nn(-c2nc(O[C@@H](C)C(F)(F)F)c(C(=O)Nc3c(C)cnc(OC)c3Cl)cc2F)c1=O,,,,efflux ratio (P-gp (ABCB1)): > 30; Papp [5]: 27 ×10⁻⁶ cm/s; CLint scaled [6]: < 7.7 mL/min/kg
C[C@H](Oc1cc(NC(=O)N2C(=O)CCC2CO)c(F)cc1C(=O)Nc1c(F)cccc1Cl)C(F)(F)F (mixture of isomers),62,0.92,106,QH [7]: ~ 20%; half-life [8]: 180 min; fraction unbound [9]: 0.012; fraction unbound [10]: 0.007; bioavailability [11]: > 100%; Vdss [12]: 3.6 L/kg
C[C@H](Oc1cc(NC(=O)N2CCCC2CO)c(F)cc1C(=O)Nc1c(F)cccc1Cl)C(F)(F)F (mixture of isomers),56,1.5,45,
C[C@H](Oc1cc(NC(=O)N(C)C)c(F)cc1C(=O)Nc1c(F)cccc1Cl)C(F)(F)F,22,2,< 4,
CCN(C)C(=O)Nc1cc(O[C@@H](C)C(F)(F)F)c(C(=O)Nc2c(F)cccc2Cl)cc1F,21,0.82,< 4,
CCN(CC)C(=O)Nc1cc(O[C@@H](C)C(F)(F)F)c(C(=O)Nc2c(F)cccc2Cl)cc1F,26,0.63,12,
CCC(CC)C(=O)Nc1cc(O[C@@H](C)C(F)(F)F)c(C(=O)Nc2c(F)cccc2Cl)cc1F,,53,,
CCNC(=O)Nc1cc(O[C@@H](C)C(F)(F)F)c(C(=O)Nc2c(F)cccc2Cl)cc1F,,53,,
C[C@H](Oc1cc(NC(=O)N2CCC(F)(F)C2)c(F)cc1C(=O)Nc1c(F)cccc1Cl)C(F)(F)F,,4.3,,
CC(=O)Nc1cc(O[C@@H](C)C(F)(F)F)c(C(=O)Nc2c(F)cccc2Cl)cc1F,,370,,
CCC(=O)Nc1cc(O[C@@H](C)C(F)(F)F)c(C(=O)Nc2c(F)cccc2Cl)cc1F,,35,,
CCn1c(CO)nn(-c2nc(O[C@@H](C)C(F)(F)F)c(C(=O)Nc3c(F)cccc3Cl)cc2F)c1=O,,,,efflux ratio (P-gp (ABCB1)): > 30; IC50 [13]: 0.24 nM
C[C@H](Oc1cc(NC(=O)N2CCCC2)c(F)cc1C(=O)Nc1c(F)cccc1Cl)C(F)(F)F,,1.3,,
